Ki data for four compounds are collected here from patent US7501428B2, “Quinazoline thiazolinones” (Hoffmann-La Roche Inc., priority 2004, dated 2009).

The experiment concerns the target T1, recombinant human CDK1/Cyclin B complex (Homo sapiens, UniProt P06493).
T1 construct: made in house; host or cells: High Five insect cells (baculovirus) for CDK1/GST-cyclin B; M15 E. coli for the Rb substrate
As to the kind of experiment: CDK1/Cyclin B kinase assay (FlashPlate or HTRF). The conditions noted are these: Rb protein substrate, Ki=IC50/(1+[S]/Km). It counts as biochemical. The method, then: To determine inhibition of CDK1 activity, either FlashPlate™ (NEN™-Life Science Products) assay or HTRF assay was performed. Both types of kinase assays were carried out using recombinant human CDK1/Cyclin B complex. GST-cyclinB (GST-cycB) and CDK1 cDNA clones in baculovirus vectors were provided by Dr. W. Harper at the Baylor College of Medicine, Houston, Tex. Proteins were co-expressed in High Five™ insect cells and the complex was purified on glutathione Sepharose resin (Pharmacia, Piscataway, N.J.) as previously described (Harper, J. W. et al. Cell 1993, 75, 805-816). A 6×-Histidine tagged truncated form of retinoblastoma (Rb) protein (amino acid 386-928) was used as the substrate for the CDK1/Cyclin B assay (the expression plasmid was provided by Dr. Veronica Sullivan, Department of Molecular Virology, Roche Research Centre, Welwyn Garden City, United Kingdom). The Rb protein is a natural substrate for phosphorylation by CDK1 (see Herwig and Strauss Eur. J. Biochem. Vol. 246 (1997) pp. 581-601 and the references cited therein). The expression of the 62Kd protein was under the control of an IPTG inducible promoter in an M15 E. coli strain. Cells were lysed by sonication and purification was carried out by binding lysates at pH 8.0 to a Ni-chelated agarose column pretreated with 1 mM imidazole. The resin was then washed several times with incrementally decreasing pH buffers to pH 6.0, and eluted with 500 mM imidazole. Eluted protein was dialyzed against 20 mM HEPES pH 7.5, 30% glycerol, 200 mM NaCl, and 1 mM DTT. Purified Rb fusion protein stocks were quantitated for protein concentration, aliquoted, and stored at −70° C.
For the FlashPlate kinase assay, 96-well FlashPlates were coated with Rb protein at 10 μg/ml, using 100 μl per well. Plates were incubated at 4° C. overnight or at room temperature for 3 hours on a shaker. […] Plates were washed four times with the wash buffer, sealed, and counted on the TopCount scintillation counter (Packard Instrument Co., Downers Grove, Ill.]. The percent inhibition of Rb phosphorylation, which is a measure of the inhibition of CDK activity, was determined according to the following formula:
[formula] where “test compound” refers to the average counts per minute of the test duplicates, “nonspecific” refers to the average counts per minute when no CDK1/Cyclin B, etc., was added, and “total” refers to the average counts per minute when no compound was added. […] The value of the inhibitor constant Ki is calculated by the following: Ki=IC50/(1+[S]/Km), where [S] is the ATP concentration and Km is Michaelis constant.
The Homogeneous Time Resolved Fluorescence (HTRF) kinase assay was carried out in 96-well polypropylene plates (BD Biosciences, Bedford, Mass.). […]

T1 sequence (P06493 whole entry): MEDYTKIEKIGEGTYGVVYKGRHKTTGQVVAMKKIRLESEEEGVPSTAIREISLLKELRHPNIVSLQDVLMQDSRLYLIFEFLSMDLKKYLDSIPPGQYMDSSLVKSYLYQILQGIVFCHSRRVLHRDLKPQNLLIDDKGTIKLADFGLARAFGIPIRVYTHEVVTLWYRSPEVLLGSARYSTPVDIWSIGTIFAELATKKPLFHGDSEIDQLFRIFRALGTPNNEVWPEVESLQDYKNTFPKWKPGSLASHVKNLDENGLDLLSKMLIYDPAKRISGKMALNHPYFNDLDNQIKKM
T1 sequence (P14635 whole entry partner): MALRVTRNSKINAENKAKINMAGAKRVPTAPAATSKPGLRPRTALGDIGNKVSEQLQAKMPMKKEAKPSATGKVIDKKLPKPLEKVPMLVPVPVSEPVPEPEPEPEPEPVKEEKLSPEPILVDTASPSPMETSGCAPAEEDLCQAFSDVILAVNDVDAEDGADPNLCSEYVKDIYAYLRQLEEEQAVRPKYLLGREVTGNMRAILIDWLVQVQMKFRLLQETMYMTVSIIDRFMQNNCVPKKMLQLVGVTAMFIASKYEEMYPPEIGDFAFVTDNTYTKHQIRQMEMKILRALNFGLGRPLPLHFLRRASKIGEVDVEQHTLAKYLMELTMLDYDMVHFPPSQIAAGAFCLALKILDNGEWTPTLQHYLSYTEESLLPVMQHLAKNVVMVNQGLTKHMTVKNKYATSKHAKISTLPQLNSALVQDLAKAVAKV

The term Ki denotes the equilibrium dissociation constant of an inhibitor or competing ligand from its target. As to `O=C1N=C(NCCc2cccc(F)c2)S/C1=C\c1ccc2ncncc2c1` [Example 3, 2-[2-(3-Fluoro-phenyl)-ethylamino]-5-[1-quinazolin-6-yl-meth-(Z)-ylidene]-thiazol-4-one], the Ki is 881 nM.
Turning to `O=C1N=C(NCc2cccs2)S/C1=C\c1ccc2ncncc2c1` [Example 1, 5-[1-Quinazolin-6-yl-meth-(Z)-ylidene]-2-[(thiophen-2-ylmethyl)-amino]-thiazol-4-one], the Ki came to 1220 nM.
As for `O=C1N=C(N[C@@H](CO)Cc2ccccc2)S/C1=C\c1ccc2ncncc2c1` [Example 7, 2-((R)-1-Hydroxymethyl-2-phenyl-ethylamino)-5-[1-quinazolin-6-yl-meth-(Z)-ylidene]-thiazol-4-one], the Ki turned out to be 1110 nM.
The same measure for `COc1cc(F)ccc1NC1=NC(=O)/C(=C/c2ccc3ncncc3c2)S1` [Example 5, 2-(4-Fluoro-2-methoxy-phenylamino)-5-[1-quinazolin-6-yl-meth-(Z)-ylidene]-thiazol-4-one]: 1840 nM.
